Read-outs that look alike come from different tables or passages of the source.
How the values were obtained:
in vitro = conditions: human, pooled cryopreserved hepatocytes, pH 7.3
MCF-7 = assay: CellTiterGlo cell viability assay, MCF-7; assay type: cell-based; conditions: Homo sapiens, MCF7, 72 h, MCF-7, 72 h; for EC50: read-out: Ab EC50
In short: (§1)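 Cell viability was measured by CellTiterGlo luminescence after ~72 h compound exposure under standard growth conditions. Compounds were tested in duplicate at 9 points, 3.16-fold dilutions, final concentrations 198 μM to 19.8 nM, 0.5% DMSO final; absolute EC50 and percentage inhibition at top concentration were reported.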

KG-1 = assay: CellTiterGlo cell viability assay, KG-1; assay type: cell-based; conditions: Homo sapiens, KG-1, 72 h
In short: as §1

RL = assay: CellTiterGlo cell viability assay, RL; assay type: cell-based; conditions: Homo sapiens, 72 h; for EC50: read-out: Ab EC50
In short: as §1

HepG2 = assay: CellTiterGlo cell viability assay, HepG2; assay type: cell-based; conditions: Homo sapiens, HepG2, 72 h; for EC50: read-out: Ab EC50
In short: as §1

[1] = tested on: KG1a LSCs and bulk tumour cells; assay: γH2A.X phosphorylation assay (DNA damage) in purified LSCs and bulk tumour cells; assay type: cell-based; conditions: 2-hour exposure, hypoxic conditions (5% O2), in words
Procedure: KG1a cells were grown under hypoxic conditions for 7 days in order to generate 10^7 cells and increase the percentage of cells expressing an LSC phenotype. Subsequently, Lin^−/CD34^+/CD38^−/CD123^+ LSCs and Lin^−/CD34^+/CD38^+/CD123^+ ‘bulk’ tumour cells were purified by high speed cell sorting using a FACS Melody cell sorter (Becton Dickenson) and were placed back into hypoxic cell culture conditions prior to the addition of clofarabine or clofarabine diphosphate phosphoramidates.
Phosphorylation of the histone variant γH2A.X occurs as a rapid response to double strand DNA breaks. The γH2A.X Phosphorylation Assay Kit (Flow cytometry) is a cell-based assay formatted for flow cytometric detection of levels of phosphorylated Histone γH2A.X (Merck, UK). LSC and ‘bulk tumour’ cells were cultured in 96-well plates in the presence of clofarabine or clofarabine diphosphate phosphoramidates. After 2 h of exposure to drug, the cells were harvested by centrifugation and then fixed and permeabilised in preparation for staining and detection. Histone γH2A.X phosphorylated at serine 139 is detected by the addition of the anti-phospho-Histone γH2A.X conjugated to APC. Cells were then run on a flow cytometer to quantitate the number of cells staining positive for phosphorylated Histone γH2A.X.

OVCAR 3 = assay: CellTiterGlo cell viability assay, OVCAR 3; assay type: cell-based; conditions: for EC50: OVCAR 3, 72 h, read-out: Ab EC50
In short: as §1

MOLT-4 = assay: CellTiterGlo cell viability assay, MOLT-4; assay type: cell-based; conditions: MOLT-4, 72 h; for EC50: read-out: Ab EC50
In short: as §1

HL-60 = assay: CellTiterGlo cell viability assay, HL-60; assay type: cell-based; conditions: HL-60, 72 h; for EC50: read-out: Ab EC50
In short: as §1

HT29 = assay: CellTiterGlo cell viability assay, HT29; assay type: cell-based; conditions: Homo sapiens, HT-29, 72 h, HT29, 72 h; for EC50: read-out: Ab EC50
In short: as §1

K562 = assay: CellTiterGlo cell viability assay, K562; assay type: cell-based; conditions: for EC50: read-out: Ab EC50
In short: as §1

RPMI-8226 = assay: CellTiterGlo cell viability assay, RPMI-8226; assay type: cell-based, Human; conditions: Homo sapiens, RPMI-8226, 72 h; for EC50: read-out: Ab EC50
In short: as §1

CCRF-CEM = assay: CellTiterGlo cell viability assay, CCRF-CEM; assay type: cell-based; conditions: 72 h; for EC50: read-out: Ab EC50
In short: as §1

[2] = percentage inhibition at the highest concentration tested, read-out: Top Inhibit
[3] = percentage inhibition at the highest concentration tested, read-out: Top Inh
[4] = Homo sapiens, percentage inhibition at the highest concentration tested, read-out: Top Inh

Which results are given for `Nc1nc(Cl)nc2c1ncn2[C@@H]1O[C@H](CO)[C@@H](O)[C@@H]1F` [Clofarabine, reference compound]?
half-life at 1 μM (in vitro): > 2 h; EC50 (MCF-7; Table 3 classes): 200 to 2000 nM; EC50 (MCF-7; Table 4 classes): 200 to 1000 nM; inhibition at 198 µM (MCF-7; [2]): 55%; EC50 (KG-1; Table 4 classes, read-out: Ab EC50): < 200 nM; inhibition at 198 µM (KG-1; [2]): 93%; EC50 (RL; Table 3 classes): 200 to 2000 nM; EC50 (RL; Table 4 classes): 200 to 1000 nM; inhibition at 198 µM (RL; [3]): 77%; EC50 (HepG2; Table 3 classes): 2000 to 5000 nM; EC50 (HepG2; Table 4 classes): 1000 to 5000 nM; inhibition at 198 µM (HepG2; [2]): 64%; DNA damage in LSCs compared with bulk tumour cells (γH2A.X phosphorylation) [1]: level of DNA damage in the LSCs was significantly lower than the bulk tumour cells; inhibition at 198 µM (OVCAR 3; Homo sapiens, OVCAR-3, 72 h, percentage inhibition at the highest concentration tested, read-out: Top Inhibit): 48%; EC50 (OVCAR 3; Homo sapiens, Table 3 classes): > 10000 nM; EC50 (OVCAR 3; Table 4 classes): > 10000 nM; inhibition at 198 µM (MOLT-4; [4]): 84.1%; EC50 (MOLT-4; Homo sapiens, Table 3 classes): < 200 nM; EC50 (MOLT-4; Table 4 classes): < 200 nM; EC50 (HL-60; Table 4 classes): < 200 nM; EC50 (HL-60; Homo sapiens, Table 3 classes): < 200 nM; inhibition at 198 µM (HL-60; [4]): 97%; EC50 (HT29; Table 3 classes): 200 to 2000 nM; EC50 (HT29; Table 4 classes): 200 to 1000 nM; inhibition at 198 µM (HT29; [2]): 64%; inhibition at 198 µM (K562; Homo sapiens, K562, 72 h, percentage inhibition at the highest concentration tested, read-out: Top Inh): 23%; EC50 (K562; Homo sapiens, K562, 72 h, Table 3 classes): > 10000 nM; EC50 (K562; K 562, 72 h, Table 4 classes): > 10000 nM; EC50 (RPMI-8226; Table 3 classes): 5000 to 10000 nM; EC50 (RPMI-8226; Table 4 classes): > 10000 nM; inhibition at 198 µM (RPMI-8226; [3]): 89%; EC50 (CCRF-CEM; Table 4 classes): < 200 nM; EC50 (CCRF-CEM; Homo sapiens, Table 3 classes): < 200 nM; inhibition at 198 µM (CCRF-CEM; [4]): 98.7%
